Source: patent US7354991B2, “Peptides for the diagnosis of schizophrenia” (Yeda Research and Development Co. Ltd, priority 2001, dated 2008)

Legend:
[1] = system: plasma samples from non schizophrenic individuals; test: Enzyme immunoassay: binding of biotin-labeled peptide on streptavidine coated tubes to control plasma; parameters: species or system human; conditions: 50 control individuals; FIG. 3
Method: (§1) • 1. Patients and control persons—Thirty-nine schizophrenic patients participated in this study. The following parameters were recorded: gender, age, duration of schizophrenia, number of hospitalizations, years of education and the psychiatric status (PANSS). Fifty plasma samples were obtained from a local blood bank. • 2. Plasma—Venous blood was drawn with heparin as […] from patients and control subjects. Plasma was obtained after centrifugation (4000 g; 15 mins. 4° C.). • 3. Peptide synthesis and biotin labeling—The peptides were synthesized on an Abimed 522 at a 10 micromol scale by Eurosequence b.v., (Nijenborgh 4: 9747 AG Groningen; The Netherlands) and labeled at the amino terminal with biotin containing a six carbon spacer. Peptide purity was routinely assessed by RP-HPLC and, when considered necessary, by laser desorption mass spectroscopy. The peptides were routinely dissolved in 1 ml water/DMF/DMSO (1:1:1; v/v/v). • 4. […] The absorbence was read at 450 nm spectrophotometrically. […]
(§2) Therefore, an experiment was carried out with the biotin-LVVGLCK as follows: the peptide was biotin-labeled and coated onto streptavidine coated tubes as explained above. Plasma samples of 39 schizophrenic patients and 50 control non schizophrenic individuals were tested with the coated peptide and the level of binding was determined by the enzyme immunoassay described above.

[2] = system: autoantibodies in plasma samples from schizophrenic patients; test: Enzyme immunoassay: binding of biotin-labeled peptide on streptavidine coated tubes to plasma of schizophrenic patients; parameters: species or system human; conditions: 39 schizophrenic patients; FIG. 3
Method: as §1, §2

level of binding, mean value and standard deviation, plasma of non schizophrenic individuals [1]: 0.46±0.21 O.D. | level of binding, mean value and standard deviation, plasma of schizophrenic patients [2]: 1.47±0.65 O.D.
Substance: LVVGLCK
